Where two headings read alike, the source gives them in different places.
What was measured:
[1] = test system: Lactobacillus casei and Streptococcus sp. FA-1; assay: Acid-production inhibition by broth-tube assay, 0.1 percent of compound; format: cell-based; settings: for inhibition at 0.1 %: read-out: Activity, Acid-Production Inhibition%; for Activity, Acid-Production Inhibition, %: Table XII, 0.1% of compound
Description: ^(a) Activity was measured by broth-tube assay to determine percent
(§1) acid-production inhibition obtained by Lactobacillus casei and
Streptococcus sp. FA-1 in the presence of 0.1 percent of compound.
^(a) Activity was measured by broth-tube assay to determine percent o
as §1
Streptococcus sp. FA-1 in the presence of 0.1% of compound. Symbols

[2] = test system: L. casei; assay: Growth inhibition of oral microorganisms in vitro, pour plates; format: cell-based, Lactobacillus casei; settings: Table IX; for Bacterial Population, Experimental: control 8 × 10^8 to 1 × 10^9; for Inhibition (growth): pour plates incubated 48 - 72 hours
Description: (§2) (a)Determined on freshly grown pure cultures. Pour plates were incubated

[3] = test system: Streptococcus spp. FA-1; assay: as above; format: cell-based; settings: Table IX; for Bacterial Population, Experimental: control 2 × 10^8 to 5 × 10^8; for Inhibition (growth): pour plates incubated 48 - 72 hours
Description: as §2

[4] = In vivo caries evaluation, Osborne-Mendel strain 1 rat; design: species or system rat (Osborne-Mendel strain 1); Caries Score, Mean Incidence / Caries Score, Mean Extent: scale not given here; settings: Table II, 90 days; for Caries Score, Mean Incidence / Caries Score, Mean Extent: 1 percent in diet; for Caries Score, Mean Incidence: RCD control 19.0 (octan-), 14.1 (nonan-), 17.6 (decan-), 22.3 (undecylenic); for Caries Score, Mean Extent: RCD control 49.6 (octan-), 34.3 (nonan-), 46.0 (decan-), 54.6 (undecylenic); for Caries Extent Reduction, statistical evaluation / Caries Incidence Reduction, statistical evaluation: Student's test, 95 percent confidence limit
From the text: (§3) Standard laboratory techniques were used to complie the data presented. In each case the aldehyde was incorporated into each specimen's food in a one percent, by weight, quantity, over a period of several weeks. In all cases, caries reduction was noted.
(§4) The aldehydes tested in vivo were pyruvaldehyde, d,1-glyceraldehyde, crystalline dimer, glycolaldehyde, octanaldehyde, nonanaldehyde, decanaldehyde, undecylenic aldehyde, and lauric aldehyde. The polyaldehydes tested were dialdehyde starch, dialdehyde starch 50 percent oxidized, dialdehyde starch 90 percent oxidized, and dialdehyde galactomannan gum.
(§5) ^(a) Agents were incorporated in the diet at a 1 percent level.

[5] = In vivo caries evaluation, laboratory animals (summary); settings: one percent level in diet
From the text: as §3, §4

[6] = test system: oral microorganisms; assay: Growth inhibition in vitro (summary); format: cell-based; settings: in words, summary of tables
Description: (§6) Other in vitro evaluations utilized a broth tube analysis of representative anticaries aldehydes incorporated in the vehicles of this invention against cultures of acid producing microorganisms normally present in the mouth. Standard laboratory procedures were utilized throughout to evaluate the acid production inhibition and growth inhibition over the incubation time of up to 24 hours.

[7] = test system: oral microorganisms; assay: Acid production inhibition in vitro (summary); format: cell-based; settings: in words, summary of tables
Description: as §6

[8] = In vivo caries evaluation, Osborne-Mendel strain 2 rat; design: species or system rat (Osborne-Mendel strain 2); Caries Score, Mean Incidence / Caries Score, Mean Extent: scale not given here; settings: for Caries Score, Mean Incidence / Caries Score, Mean Extent: 1 percent in diet; for Caries Extent Reduction, statistical evaluation / Caries Incidence Reduction, statistical evaluation: Student's test, 95 percent confidence limit
From the text: as §3, §4, §5

[9] = In vivo caries evaluation, albino hamster; settings: Table II, 59 days
From the text: as §3, §4, §5

[10] = test system: Mixed human oral microorganisms; assay: Growth inhibition by aldehydes in product vehicles, pour-plate technique; format: cell-based; settings: in tooth powder (aqueous extract), 1 to 5 percent aldehyde
Description: as §6
(§7) (b)Measured by pour-plate technique.
(§8) In formulating Tables XIII - XIX representative aldehydes having anticaries activity were selected from those tested as summarized in Tables I - XII and incorporated in seven representative types of products. The products included dextrose and sucrose syrups, obtained commercially in food grades, and compressed candy, hard candy, mouthwash, toothpaste and toothpowder. The five latter products also employed food grade and reagent grade ingredients. These products were formulated by well-known and representative recipes for each type of product. The products were formed in batches of approximately 1 pound or 1 liter and contained all their normal constitutents. Aliquots of each products were blended with one of each of the representative aldehydes selected except in the case of hard candy.
(§9) Aliquots of the aldehyde incorporating sugar syrups, confectioneries, and mouthwash formulations were added directly to assay flasks and mixed or dissolved as required. Aqueous extracts of the aldehyde incorporated in toothpaste and toothpowder were prepared and aliquots of the filtrate were added to the assay flasks.
(§10) The assay flasks contained the necessary components for a normal growth response from the organisms employed, Lactobacillus casei ATCC 4646, originally a human oral isolate, Streptococcus spp. K1-R, human caries isolate, and a mixed oral microbial population obtained fresh from saliva on the morning prior to the initiation of each assay incubation period. The assay flask medium was dissolved in distilled water in which was added an equal volume of filter sterilized human saliva to yield a 50 percent saliva-medium combination. The medium contained all normal ingredients such as yeast extract, proteose peptone number 3 (a proprietary formula of Difco Laboratories, Detroit, Michigan) monopotassium phosphate, Tween 80 (polyoxethylene sorbitan monoleate) and water, except a carbon source. This was supplied by the aliquot of the sucrose syrup, dextrose syrup, sucrose in the compressed candy tablet and sucrose in the hard candy product. In addition, an aliquot of sucrose solution concentrate was added to the assay flask as a carbon source for evaluation of mouthwash, toothpaste, and toothpowder vehicles.
(§11) The lower aldehydes such as glycolaldehyde, crystalline dimer; pyruvaldehyde, aqueous syrup; d,1-glyceraldehyde solution and crystalline dimer; and glutaraldehyde, employed as a 50 percent aqueous solution, are water soluble and were employed directly either as powders or aqueous solutions. The C8 to C12, longer chain aliphatic aldehydes, of which decyl and dodecyl (lauric) were selected as representative, are oil soluble and are prepared and added to the products as emulsions with four parts of Tween 20, polyoxethylene sorbitan monolaurate. The aldehyde concentrations in the products were randomly chosen between 1 to 5 percent by weight. Limits for the concentrations were selected to coincide with the data presented in Tables I - XII in order to verify that the anticaries activity of the aldehydes in the product vehicles tested was equivalent to the activity previously established for the aldehydes alone.

[11] = test system: Streptococcus spp. KI-R; assay: as above; format: cell-based; settings: in tooth powder (aqueous extract), 1 to 5 percent aldehyde
Description: as §6, §7, §8, §9, §10, §11

[12] = test system: Lactobacillus casei ATCC 4646; assay: as above; format: cell-based; settings: in tooth powder (aqueous extract), 1 to 5 percent aldehyde
Description: as §6, §7, §8, §9, §10, §11

[13] = test system: Mixed human oral microorganisms; assay: Acid production inhibition by aldehydes in product vehicles, broth-tube technique; format: cell-based; settings: in tooth powder (aqueous extract), 1 to 5 percent aldehyde
Description: as §6
(§12) (a)Measured by broth-tube technique.
as §8, §9, §10, §11

[14] = test system: Streptococcus spp. KI-R; assay: as above; format: cell-based; settings: in tooth powder (aqueous extract), 1 to 5 percent aldehyde
Description: as §6, §12, §8, §9, §10, §11

[15] = test system: Lactobacillus casei ATCC 4646; assay: as above; format: cell-based; settings: in tooth powder (aqueous extract), 1 to 5 percent aldehyde
Description: as §6, §12, §8, §9, §10, §11

[16] = Table X, 0.1 percent of compound
[17] = Student's test, 95 percent confidence limit
[18] = Table II, 90 days, L2000 control 17.4
[19] = Table II, 90 days, L2000 control 31.3

CCCCCCCCCC(C)C=O (stereo not shown) [Methylnonylacetaldehyde]
inhibition at 0.1 % [1, 16]: 90 to 98%
Bacterial Population, Experimental [2]: < 1 × 10^3
Inhibition (growth) [2]: > 99.99%
Bacterial Population, Experimental [3]: 0
Inhibition (growth) [3]: 100%

CCCCCCCCC=O [Nonanaldehyde]
Caries Score, Mean Incidence [4]: 5.1
Caries Score, Mean Extent [4]: 10.2
Caries Extent Reduction, statistical evaluation [4]: Significant
Caries Incidence Reduction, statistical evaluation [4]: Significant
inhibition at 0.1 % [1, 16]: 99 to 100%
Bacterial Population, Experimental [2]: 4 × 10^4
Inhibition (growth) [2]: > 99.99%
Anticaries effect in laboratory animals [5]: significant anticaries activity
Bacterial Population, Experimental [3]: 0
Inhibition (growth) [3]: 100%

CCCCCC=O [n-Hexaldehyde]
Growth Inhibition [6]: little or no growth inhibition
inhibition at 0.1 % [1, 16]: 25 to 74%
Bacterial Population, Experimental [2]: 1 × 10^9
Inhibition (growth) [2]: None
Acid Production Inhibition [7]: excellent acid production inhibition
Bacterial Population, Experimental [3]: 4 × 10^8
Inhibition (growth) [3]: Insignificant

CCCC=CC=O [2-Hexene-1-al]
Growth Inhibition [6]: little or no growth inhibition
inhibition at 0.1 % [1]: 90 to 98%
Bacterial Population, Experimental [2]: 8 × 10^8
Inhibition (growth) [2]: Insignificant
Acid Production Inhibition [7]: excellent acid production inhibition
Bacterial Population, Experimental [3]: 9 × 10^7
Inhibition (growth) [3]: Insignificant

OCC1OC(O)C(CO)OC1O (stereo not shown) [Glyceraldehyde, crystalline dimer]
Caries Score, Mean Incidence ([8]; Table I, 91 days, L-2000 control 23.5): 15.0
Caries Score, Mean Extent ([8]; Table I, 91 days, L-2000 control 51.0): 29.4
Caries Extent Reduction, statistical evaluation ([8]; Table I, 91 days): Significant
Caries Incidence Reduction, statistical evaluation ([8]; Table I, 91 days): Significant

CCCCCCCCCCC=O [Undecylic aldehyde]
inhibition at 0.1 % [1, 16]: 99 to 100%
Bacterial Population, Experimental [2]: 5 × 10^4
Inhibition (growth) [2]: > 99.99%
Bacterial Population, Experimental [3]: 2 × 10^3
Inhibition (growth) [3]: > 99.99%

CC(C)=CCCC(C)=CC=O [Citral]
inhibition at 0.1 % [1, 16]: 99 to 100%

O=CC(=O)C=O [Mesoxalic dialdehyde]
Activity, Acid-Production Inhibition, % ([1]; confirmation of purity and structure lacking, actual activity could be much higher): + (25 to 74)

O=CCCC=O [Succinic dialdehyde]
Activity, Acid-Production Inhibition, % [1]: ++++ (99 to 100)

CCCCCCCC=O [Octanaldehyde]
Caries Score, Mean Incidence ([9]; 1 percent in diet, L2000 control 39.3): 18.6
Caries Score, Mean Extent ([9]; 1 percent in diet, L2000 control 117.6): 53.8
Caries Extent Reduction, statistical evaluation [9, 17]: Significant
Caries Incidence Reduction, statistical evaluation [9, 17]: Significant
Caries Score, Mean Incidence [4]: 9.8
Caries Score, Mean Extent [4]: 20.4
Caries Extent Reduction, statistical evaluation [4]: Significant
Caries Incidence Reduction, statistical evaluation [4]: Significant
inhibition at 0.1 % [1, 16]: 99 to 100%
Bacterial Population, Experimental [2]: 2 × 10^7
Inhibition (growth) [2]: 97%
Anticaries effect in laboratory animals [5]: significant anticaries activity
Caries Score, Mean Incidence [8, 18]: 2.9
Caries Score, Mean Extent [8, 19]: 4.1
Caries Extent Reduction, statistical evaluation ([8]; Table II, 90 days): Significant
Caries Incidence Reduction, statistical evaluation ([8]; Table II, 90 days): Significant
Bacterial Population, Experimental [3]: 9 × 10^3
Inhibition (growth) [3]: > 99.99%

CCCCCCC=O [n-Heptaldehyde]
Growth Inhibition [6]: little or no growth inhibition
inhibition at 0.1 % [1, 16]: 75 to 89%
Bacterial Population, Experimental [2]: 1 × 10^9
Inhibition (growth) [2]: None
Acid Production Inhibition [7]: excellent acid production inhibition
Bacterial Population, Experimental [3]: 3 × 10^8
Inhibition (growth) [3]: Insignificant

CC=CCCCCCCCC=O [Undecylenic aldehyde]
Caries Score, Mean Incidence [4]: 7.4
Caries Score, Mean Extent [4]: 16.4
Caries Extent Reduction, statistical evaluation [4]: Significant
Caries Incidence Reduction, statistical evaluation [4]: Significant
inhibition at 0.1 % [1, 16]: 99 to 100%
Bacterial Population, Experimental [2]: 1 × 10^2
Inhibition (growth) [2]: > 99.99%
Anticaries effect in laboratory animals [5]: significant anticaries activity
Bacterial Population, Experimental [3]: 0
Inhibition (growth) [3]: 100%

O=CCCCC(O)C=O (stereo not shown) [2-Hydroxyadipaldehyde]
Activity, Acid-Production Inhibition, % [1]: + (25 to 74)

CCCCCCCCCCCC=O [Lauric aldehyde]
inhibition at 0.1 % [1, 16]: 99 to 100%
Bacterial Population, Experimental [2]: < 1 × 10^2
Inhibition (growth) [2]: > 99.99%
Anticaries effect in laboratory animals [5]: significant anticaries activity
Growth Inhibition ([10]; 2 h incubation): 99.8 Per cent
Growth Inhibition ([10]; 5 h incubation): 99.6 Per cent
Growth Inhibition ([10]; 24 h incubation): N.S.
Growth Inhibition ([11]; 2 h incubation): 99.2 Per cent
Growth Inhibition ([11]; 5 h incubation): > 99.99 Per cent
Growth Inhibition ([11]; 24 h incubation): 100 Per cent
Growth Inhibition ([12]; 2 h incubation): 99.5 Per cent
Growth Inhibition ([12]; 5 h incubation): > 99.99 Per cent
Growth Inhibition ([12]; 24 h incubation): 99.99 Per cent
Caries Score, Mean Incidence [8, 18]: 10.0
Caries Score, Mean Extent [8, 19]: 15.6
Caries Extent Reduction, statistical evaluation ([8]; Table II, 90 days): Significant
Caries Incidence Reduction, statistical evaluation ([8]; Table II, 90 days): Significant
Acid Production Inhibition ([13]; 2 h incubation): 33 Per cent
Acid Production Inhibition ([13]; 5 h incubation): 96 Per cent
Acid Production Inhibition ([13]; 24 h incubation): 0 Per cent
Acid Production Inhibition ([14]; 2 h incubation): 0 Per cent
Acid Production Inhibition ([14]; 5 h incubation): 0 Per cent
Acid Production Inhibition ([14]; 24 h incubation): 0 Per cent
Acid Production Inhibition ([15]; 2 h incubation): 0 Per cent
Acid Production Inhibition ([15]; 5 h incubation): 0 Per cent
Acid Production Inhibition ([15]; 24 h incubation): 93 Per cent
Bacterial Population, Experimental [3]: 0
Inhibition (growth) [3]: 100%

O=CC=O [Glyoxal]
Activity, Acid-Production Inhibition, % [1]: ++++ (99 to 100)
